Measured values: patent publication US5116846A, “N-aralkyl piperidine derivatives as psychotropic drugs” (priority 1990, dated 1992)

Key:
[1] = (+)-N-Allylnormetazocine-Induced Turning Behavior in Rats; assay type: in vivo, rat (male Sprague-Dawley); settings: test drug p.o. or s.c. 20 minutes before testing; (+)-N-allylnormetazocine 4.0 mg/kg s.c.; class symbols not defined
Method: (+)-N-Allylnormetazocine-Induced Turning Behavior in Rats
Male Sprague-Dawley rats (CDlCR, Charles River), weighing 190-290 g, were used for surgery. In order to spare […] neurons, rats were injected with 25 mg/kg imipramine i.p. 30 minutes before surgery. The rats were anesthetized with a 1:1.2 ratio mixture of Xylazine:Ketamine given 0.1 mL/100 g body weight i.m. A Ringers-Wydaze (100:0.01) solution was given to prevent dehydration. Dopamine was depleted in the right striatum by injecting the neurotoxin 6-hydroxydopamine (6-OHDA) into the substantia nigra of the right cerebral hemisphere. Five mg of 6-OHDA was dissolved in 5 mL of a 0.04% ascorbic acid solution which had been deoxygenated with nitrogen. Five μL of the 6-OHDA solution was injected into the substantia nigra through a 26 gauge needle over a five minute period. […]
Rotation rate and direction were determined with Coulbourn Instruments Rotometry Monitors. Clockwise and counter clockwise rotations were recorded at 30 and 60 minute intervals. […]
The data were analyzed with an analysis of variance statistical test and individual comparisons of each dose of test drug to control were made with Dunnett's multiple range test. The ED50 was calculated with a Litchfield and Wilcoxon test using percent of control values. […]

[2] = Isolation-Induced Aggression in Mice; assay type: in vivo, mouse (male Balb/c)
Method: Male Balb/c mice (Charles River) were used. […] Isolated mice failing to consistently attack an intruder were eliminated from the colony.
Drug testing was carried out by treating the isolated mice with test drugs or standards. Fifteen minutes after dosing with test drugs by the oral route, one isolated mouse was removed from its home cage and placed in the home cage of another isolate. Scoring was a yes or no response for each pair. A maximum of 3 minutes was allowed for an attack and the pair was separated immediately upon an attack. Selection of home cage and intruder mice was randomized for each test. Mice were treated and tested twice a week with at least a 2 day washout period between treatments.

sigma receptor = settings: Tam, Eur. Pharmacol, 109:33-41 (1985); cited from earlier work

Row | Structure (SMILES) | Inhibition of (+)-N-Allylnormetazocine Induced Turning [1] | Inhibition of Isolation-induced Aggression ([2]; oral, fifteen minutes after dosing, class symbols not defined) | Inhibition of Isolation-induced Aggression ([2]; po) | affinity for the sigma receptor (sigma receptor)
1 | O=C(CCCN1CCC(O)(c2ccc(Cl)cc2)CC1)c1ccc(F)cc1 [Haloperidol, haloperidol] | potently antagonized | potent activities in inhibiting the isolation-induced aggressive behavior | +++ | 
2 | c1ccc(C2(N3CCCCC3)CCCCC2)cc1 [PCP, phencyclidine] |  |  |  | significant affinity for the sigma receptor
